From patent publication US20210206763A1, “Anti-Proliferative Agents” (FEMTOGENIX LIMITED, priority 2015, published 2021)

Experiments:
Type in all cases: cell-based
SK-MEL-5 (Melanoma) = assay: In vitro cytotoxicity of 41, cancer cell-line panel; conditions: Homo sapiens, 72 hour incubation
Experimental: (§1) Tumor cell lines were maintained in RPMI1640 medium supplemented with 10% heat-inactivated fetal bovine serum, 2 mM L-glutamine and 1 mM sodium pyruvate. 1800 cells per well were seeded in a volume of 180 μl in a 96-well flat bottom polystyrene plate. The cells were allowed to adhere overnight at 37° C. in a CO2 incubator. Ligands were initially formulated in DMSO, and stocks stored at −80° C. They were then further formulated at lox concentration in RPMI1640 medium. 20 ul of diluted samples were added into each treatment well. On each plate, blank wells with no cells, and untreated wells containing cells, were included. Plates were then cultured at 37° C. in a CO2 incubator for 72 hrs. Cytotoxicity was evaluated using a tetrazolium salt-based assay, the MIT assay. After 72 hours, the supernatant was removed from each well and 200 μl of a sterile filtered 500 μg/ml MTT solution in water added to each well. The plates were then incubated at 37° C. in a CO2 incubator for 4 hrs. The supernatant was then removed and the formazan crystals formed solubilized by adding 15(411 of DMSO to each well. The plate was then read on a plate reader at 540 nm, and percentage cell survival calculated as follows: ((mean absorbance treated wells at concentration x−mean absorbance blank wells)÷(mean absorbance untreated wells at concentration x−mean absorbance blank wells))×100. Data were plotted as concentration in nM vs. % cell survival in Microsoft Excel, and IC50 values (concentration where cell survival is reduced by a half) were determined from the graph.

PC3 (Prostate) = assay: as above; conditions: 72 hour incubation
Experimental: as §1

AGS (Gastric) = assay: as above; conditions: 72 hour incubation
Experimental: as §1

SK-HEP-1 (Liver) = assay: as above; conditions: Homo sapiens, SK-HEP1; 72 hour incubation
Experimental: as §1

SW480 (Colorectal) = assay: as above; conditions: Homo sapiens, 72 hour incubation
Experimental: as §1

LnCap (Prostate) = assay: as above; conditions: Homo sapiens, 72 hour incubation
Experimental: as §1

HL60 (APML) = assay: as above; conditions: Homo sapiens, HL-60; 72 hour incubation
Experimental: as §1

786-O (Renal Cell, CD70) = assay: as above; conditions: Homo sapiens, 786-0; 72 hour incubation
Experimental: as §1

BxPC3 (Pancreas) = assay: as above; conditions: Homo sapiens, BXPC-3; 72 hour incubation
Experimental: as §1

A549 (Lung) = assay: as above; conditions: Homo sapiens, 72 hour incubation
Experimental: as §1

AML2 (AML) = assay: as above; conditions: 72 hour incubation
Experimental: as §1

A375 (Skin) = assay: as above; conditions: Homo sapiens, A-375; 72 hour incubation
Experimental: as §1

[1] = tested on: EC Cancer Stem Cell (Cancer stem cells); assay: as above; conditions: 72 hour incubation
Experimental: as §1

Calu-3 (Lung) = assay: as above; conditions: Homo sapiens, 72 hour incubation
Experimental: as §1

[2] = tested on: ZR75-1 (HER2++) (Trastuzumab resistant); assay: In vitro cytotoxicity of ADCs; conditions: Homo sapiens, ZR-75-1; 72 hour incubation
Experimental: (§2) The resulting ADCs were evaluated in vitro against relevant antigen positive cell-lines.

SK-BR-3 (HER2+++) = assay: In vitro cytotoxicity of ADCs; conditions: Homo sapiens, 72 hour incubation
Experimental: as §2

MCF-7 (HER2−) = assay: In vitro cytotoxicity of ADCs; conditions: Homo sapiens, MCF7; 72 hour incubation
Experimental: as §2

SMILES	IC50 (SK-MEL-5 (Melanoma))	IC50 (PC3 (Prostate))	IC50 (AGS (Gastric))	IC50 (SK-HEP-1 (Liver))	IC50 (SW480 (Colorectal))	IC50 (LnCap (Prostate))	IC50 (HL60 (APML))	IC50 (786-O (Renal Cell, CD70))	IC50 (BxPC3 (Pancreas))	IC50 (A549 (Lung))	IC50 (AML2 (AML))	IC50 (A375 (Skin))	IC50 [1]	IC50 (Calu-3 (Lung))	IC50 [2]	IC50 (SK-BR-3 (HER2+++))	IC50 (MCF-7 (HER2−))
COc1cc2c(cc1OCCCC(=O)Nc1cc(C(=O)Nc3ccc(-c4cc(C(=O)Nc5ccc(N)cc5)n(C)c4)cc3)n(C)c1)N=C[C@@H]1CCCCN1C2=O [Compound 41]	0.39 nM	0.36 nM	0.07 nM	0.32 nM	0.29 nM	0.47 nM	0.009 nM	0.53 nM	0.43 nM	0.18 nM	0.016 nM	0.28 nM	2.64 nM	0.65 nM			
COc1cc2c(cc1OCCCC(=O)Nc1cc(C(=O)Nc3ccc(-c4cc(C(=O)Nc5ccc(N)cc5)n(C)c4)cc3)n(C)c1)N=C[C@@H]1CCCCN1C2=O [Compound 41, (S)—N-(4-aminophenyl)-4-(4-(4-(4-((2-methoxy-12-oxo-6a,7,8,9,10,12-hexahydrobenzo[e]pyrido[1,2-a][1,4]diazepin-3-yl)oxy)butanamido)-1-methyl-1H-pyrrole-2-carboxamido)phenyl)-1-methyl-1H-pyrrole-2-carboxamide]															0.63 nM	0.086 nM	0.289 nM
